Consider three compounds from US12458024B2, “Compound combination with superior herbicidal activity” (priority 2020, dated 2025).

What all share (assay type): in vivo
Test [1] concerns Chenopodium album. Put plainly: Field trial herbicidal action, indaziflam + pelargonic acid, Chenopodium album. The procedure: (§1) The following active compounds were tested: • Product PeAc contained 249.96 g a.i./L of pelargonic acid in an EC formulation • Product IAF contained 200 g a.i./L of indaziflam formulated as SC formulation • Product TBA contained 500 g a.i./L of terbutylazine formulated as SC formulation 2. Biological Trials Herbicidal Action (Field Trials)
(§2) The growth stages of the different weed or crop plant species are indicated according to the BBCH monograph “Growth stages of mono- and dicotyledonous plants”, 2nd edition, 2001, ed. Uwe Meier, Federal Biological Research Centre for Agriculture and Forestry (Biologische Bundesanstalt für Land und Forstwirtschaft). The respective BBCH stages are mentioned in brackets for the different weed or crop plant species and indicate the BBCH stage for the majority of the respective weed or crop plant species.
(§3) The dose rates of herbicidal ingredients used in each case are indicated for the respective active ingredient in brackets and refer to the amount of active ingredient per hectare (g a.i./ha).
(§4) • A is the efficacy in % when active compound A is applied at an application rate of a g a.i./ha, • B is the efficacy in % when active compound B is applied at an application rate of b g a.i./ha), • EC is the efficacy in % when the active compounds A and B are applied at application rates of a+b g a.i./ha), respectively, and Then EC=A+B−([…]/100)

A further test relates to Abutilon theophrasti. As to the kind of experiment: Field trial herbicidal action, indaziflam + pelargonic acid, Abutilon theophrasti. How it is done: as §1, §2, §3, §4
For another test, the system named is Setaria viridis. Put plainly: Field trial herbicidal action, indaziflam + pelargonic acid, Setaria viridis. How it is done:
as §1, §2, §3, §4

Test [2] relates to Echinocloa crus-galli. Put plainly: Field trial herbicidal action, indaziflam + pelargonic acid, Echinocloa crus-galli. The procedure:
as §1, §2, §3, §4

The test system of the next test is Zea mays. As to the kind of experiment: Field trial herbicidal action, indaziflam + pelargonic acid, Zea mays. The procedure:
as §1, §2, §3, §4

Another test has as its system Polygonum convolvulus. As to the kind of experiment: Field trial herbicidal action, indaziflam + pelargonic acid, Polygonum convolvulus. How it is done:
as §1, §2, §3, §4

A further test deals with Panicum maximum. As to the kind of experiment: Field trial herbicidal action, indaziflam + pelargonic acid, Panicum maximum. How it is done:
as §1, §2, §3, §4

Test [3] concerns Chenopodium album. As to the kind of experiment: Field trial herbicidal action, terbuthylazine + pelargonic acid, Chenopodium album. How it is done: as §1, §2, §3, §4
The subject of a further test is Abuthilon theophrasti. As to the kind of experiment: Field trial herbicidal action, terbuthylazine + pelargonic acid, Abuthilon theophrasti. How it is done: as §1, §2, §3, §4
In test [4] the test system is Echinocloa crus-galli. Put plainly: Field trial herbicidal action, terbuthylazine + pelargonic acid, Echinocloa crus-galli. How it is done:
as §1, §2, §3, §4

In the next test the test system is Amaranthus retroflexus. As to the kind of experiment: Field trial herbicidal action, terbuthylazine + pelargonic acid, Amaranthus retroflexus. How it is done:
as §1, §2, §3, §4

As for `Cc1ccc2c(c1)C(Nc1nc(N)nc(C(C)F)n1)C(C)C2` (mixture of isomers) [Indaziflam, N2-[(1R,2S)-2,3-dihydro-2,6-dimethyl-1H-inden-1-yl]-6-[(1RS)-1-fluoroethyl]-1,3,5-triazine-2,4-diamine], the “Herbicidal Activity 13 DAT [%] (EA)” value stood at 20% in the test on Chenopodium album [1] (50 g a.i./ha); 60% with Abutilon theophrasti (10 g a.i./ha); 92% with Abutilon theophrasti (50 g a.i./ha); 0% in the test on Setaria viridis (50 g a.i./ha); 0% in the test on Echinocloa crus-galli [2] (50 g a.i./ha); 10% in the test on Zea mays (50 g a.i./ha). Further, the “Herbicidal Activity 13 DAT [%] (EA)” value is 55% in the test on Polygonum convolvulus (50 g a.i./ha) and 5% with Panicum maximum (50 g a.i./ha).

With `CCCCCCCCC(=O)O` [Pelargonic acid, nonanoic acid], the “Herbicidal Activity 13 DAT [%] (EA)” value came out at 40% in the test with Chenopodium album [1] (6000 g a.i./ha); 80% with Chenopodium album [1] (16000 g a.i./ha); 45% with Abutilon theophrasti (6000 g a.i./ha); 88% in the test with Abutilon theophrasti (16000 g a.i./ha); 10% in the test on Setaria viridis (6000 g a.i./ha); 45% in the test on Setaria viridis (16000 g a.i./ha). In addition, the “Herbicidal Activity 13 DAT [%] (EA)” value with Echinocloa crus-galli [2] (6000 g a.i./ha) worked out at 0%; in the test with Echinocloa crus-galli [2] (16000 g a.i./ha), 25%; with Zea mays (6000 g a.i./ha), 38%; with Zea mays (16000 g a.i./ha), 65%; in the test with Polygonum convolvulus (6000 g a.i./ha), 40%; in the test with Panicum maximum (6000 g a.i./ha), 20%. Moreover, the “Herbicidal Activity 13 DAT [%] (EA)” value in the test with Panicum maximum (16000 g a.i./ha) is listed as 50%. Besides, the “Herbicidal Activity 14 DAT [%] (EA)” value with Chenopodium album [3] (6000 g a.i./ha) is given as 20%; with Chenopodium album [3] (12000 g a.i./ha) it was 88%; in the test on Chenopodium album [3] (16000 g a.i./ha), 97%; in the test on Abuthilon theophrasti (6000 g a.i./ha), 30%; with Abuthilon theophrasti (12000 g a.i./ha) it was 57%; in the test with Abuthilon theophrasti (16000 g a.i./ha) it was 57%. The “Herbicidal Activity 14 DAT [%] (EA)” value with Echinocloa crus-galli [4] (6000 g a.i./ha) was determined as 13%; with Echinocloa crus-galli [4] (12000 g a.i./ha), 30%; in the test with Echinocloa crus-galli [4] (16000 g a.i./ha), 33%; with Amaranthus retroflexus (6000 g a.i./ha) it was 13%; with Amaranthus retroflexus (12000 g a.i./ha), 90%; in the test on Amaranthus retroflexus (16000 g a.i./ha), 93%.

With `CCNc1nc(Cl)nc(NC(C)(C)C)n1` [Terbuthylazin, terbuthylazine], the “Herbicidal Activity 14 DAT [%] (EA)” value in the test on Chenopodium album [3] (125 g a.i./ha) amounted to 0%; in the test with Chenopodium album [3] (250 g a.i./ha) it was 13%; in the test with Chenopodium album [3] (500 g a.i./ha) it was 67%; with Chenopodium album [3] (750 g a.i./ha) it was 78%; in the test with Abuthilon theophrasti (125 g a.i./ha), 0%; in the test on Abuthilon theophrasti (250 g a.i./ha), 7%. Moreover, the “Herbicidal Activity 14 DAT [%] (EA)” value with Abuthilon theophrasti (500 g a.i./ha) was 7%; with Abuthilon theophrasti (750 g a.i./ha) it was 20%; with Echinocloa crus-galli [4] (125 g a.i./ha), 0%; in the test on Echinocloa crus-galli [4] (250 g a.i./ha), 0%; in the test with Echinocloa crus-galli [4] (500 g a.i./ha), 0%; in the test with Echinocloa crus-galli [4] (750 g a.i./ha) it was 0%. Moreover, the “Herbicidal Activity 14 DAT [%] (EA)” value is 0% with Amaranthus retroflexus (125 g a.i./ha), 7% in the test with Amaranthus retroflexus (250 g a.i./ha), 47% in the test on Amaranthus retroflexus (500 g a.i./ha) and 63% in the test on Amaranthus retroflexus (750 g a.i./ha).
